Test results reported in PubChem BioAssay AID720726 (Broad Institute, 2013).
Active and inactive are the calls of the source.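 Rule for the calls: active = fitted dose curve rising to 40 percent activity within the top usable dose; inconclusive = flat curve between 30 and 70 percent, or poor fit; inactive = the rest, including signal moving the wrong way.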

test system: not listed separately; test: activators raising endogenous miR-122 levels, dose response, orthogonal assay, cell-based, Huh7, qRT-PCR, dry powder (AID 720726); conditions: Huh7 miR-122 levels, qRT-PCR, 48 h; at 30 µM (top of the series)

Row | SMILES | miR-122 fold change
1 | CN1C(=O)c2cc(NC(=O)c3cccc(F)c3)ccc2OC[C@@H]2O[C@@H](CC(=O)O)CC[C@H]21 | 0.927 fold change (inactive)

same assay, conditions: Huh7 miR-122 levels, qRT-PCR, 48 h; at 35 µM (top of the series)

Row | SMILES | miR-122 fold change
2 | C[C@@H]1CN([C@H](C)CO)S(=O)(=O)c2ccc(C#Cc3ccncc3)cc2O[C@H]1CN(C)C(=O)C1CCOCC1 | 0.486 fold change (inactive)
3 | C/C=C/c1cnc2c(c1)C(=O)N([C@@H](C)CO)C[C@H](C)[C@H](CN(C)S(=O)(=O)c1ccc(OC)cc1)O2 | 1.05 fold change (inactive)
4 | C[C@@H]1CN([C@H](C)CO)S(=O)(=O)c2ccc(/C=C/c3ccccc3)cc2O[C@@H]1CN(C)C(=O)c1cccnc1 | 1.11 fold change (inactive)
5 | CO[C@@H]1CN(C)C(=O)c2cc(NS(=O)(=O)c3ccc(Oc4ccccc4)cc3)ccc2OC[C@H](C)NC[C@@H]1C | 0.882 fold change (inactive)
6 | CN(C)CCN1C(=O)c2cccc3cc(N)cc(c23)C1=O | 0.364 fold change (inactive)
7 | CCOC(=O)N1CCC(NC(=O)c2ccc3nc(N4CCC(C)CC4)sc3c2)CC1 | 1 fold change (inactive)
8 | COCC(=O)N(C)C[C@H]1Oc2cc(-c3ccccc3F)ccc2S(=O)(=O)N([C@@H](C)CO)C[C@H]1C | 0.823 fold change (inactive)
9 | C[C@H]1CN([C@@H](C)CO)S(=O)(=O)c2ccc(C#Cc3ccncc3)cc2O[C@H]1CN(C)C(=O)C1CCOCC1 | 0.373 fold change (inactive)
10 | COc1cccc(-c2ccc3c(c2)O[C@H](CN(C)C(=O)C2CCOCC2)[C@H](C)CN([C@@H](C)CO)S3(=O)=O)c1 | 0.896 fold change (inactive)
11 | COCC(=O)N(C)C[C@H]1Oc2cc(C#Cc3cccnc3)ccc2S(=O)(=O)N([C@@H](C)CO)C[C@H]1C | 0.983 fold change (inactive)
12 | O=C(NCc1ccccc1Cl)c1ccc(CNc2c(NC3CCCCC3)c(=O)c2=O)cc1 | 0.171 fold change (inactive)
13 | CN1C(=O)c2cc(NC(=O)c3cccc(F)c3)ccc2OC[C@H]2O[C@@H](CC(=O)O)CC[C@H]21 | 1.38 fold change (inactive)
14 | CCOC(=O)N1CCC(NC(=O)c2ccc3c(c2)sc2nc(-c4ccccc4)cn23)CC1 | 0.356 fold change (inactive)
15 | Nc1ccc(Oc2ccc(Br)cc2)cc1 | 0.505 fold change (inactive)
16 | Cn1c(=O)c(=O)n(C)c2cc(S(=O)(=O)N3CCOCC3)ccc21 | 1.28 fold change (inactive)
17 | C[C@H]1CN([C@@H](C)CO)C(=O)c2cc(-c3ccc(C#N)cc3)cnc2O[C@H]1CN(C)C(=O)c1ccccc1 | 1.14 fold change (inactive)
18 | CN1C(=O)c2cc(NC(=O)c3cccc(F)c3)ccc2OC[C@@H]2O[C@H](CC(=O)O)CC[C@H]21 | 0.958 fold change (inactive)
19 | CN1C(=O)c2cc(NC(=O)c3cccc(F)c3)ccc2OC[C@H]2O[C@H](CC(=O)O)CC[C@@H]21 | 0.869 fold change (inactive)
20 | C[C@H](CO)N1C[C@H](C)[C@H](CN(C)C(=O)C2CCOCC2)Oc2cc(C#Cc3ccncc3)ccc2S1(=O)=O | 0.417 fold change (inactive)
21 | CN(CC(=O)Nc1cccc(Cl)c1)S(=O)(=O)c1ccc2c(c1)n(C)c(=O)c(=O)n2C | 1.27 fold change (inactive)

Row | SMILES | miR-122 fold change
22 | COc1ccc(S(=O)(=O)N(C)C[C@@H]2Oc3ncc(/C=C/c4ccccc4)cc3C(=O)N([C@@H](C)CO)C[C@@H]2C)cc1 | 0.9 fold change (inactive)
23 | COCC(=O)N(C)C[C@@H]1Oc2ncc(-c3ccc(C#N)cc3)cc2C(=O)N([C@@H](C)CO)C[C@@H]1C | 1.01 fold change (inactive)
24 | O=C(NCCC1=CCCCC1)c1ccc2c(c1)sc1nc(-c3ccccc3)cn12 | 0.828 fold change (inactive)
25 | C[C@H]1CN([C@@H](C)CO)C(=O)c2cc(-c3ccc(C#N)cc3)cnc2O[C@H]1CN(C)C(=O)Nc1ccc(C(F)(F)F)cc1 | 0.749 fold change (inactive)
26 | O=C(c1ccc(CN2CCOCC2)cc1)N1CCc2ccccc21 | 1 fold change (inactive)
27 | Cc1cc(C(C)(C)C)cc(S(=O)(=O)N2CCOCC2)c1C | 0.977 fold change (inactive)
28 | OCc1ccc(-c2nn(Cc3ccccc3)c3ccccc23)o1 | 0.428 fold change (inactive)
29 | CN1C(=O)c2cc(NC(=O)c3cccc(F)c3)ccc2OC[C@H]2O[C@@H](CC(=O)O)CC[C@@H]21 | 1.24 fold change (inactive)
30 | CN1C(=O)c2cc(NC(=O)c3cccc(F)c3)ccc2OC[C@H]2O[C@H](CC(=O)O)CC[C@H]21 | 0.909 fold change (inactive)
31 | C[C@@H]1CN([C@H](C)CO)S(=O)(=O)c2ccc(C#Cc3ccncc3)cc2O[C@@H]1CN(C)C(=O)C1CCOCC1 | 0.732 fold change (inactive)
32 | CO[C@@H]1CN(C)C(=O)c2cc(NC(=O)c3ccc4c(c3)OCO4)ccc2OC[C@H](C)NC[C@@H]1C | 1.02 fold change (inactive)
33 | C[C@H]1CN([C@@H](C)CO)C(=O)c2cc(C#Cc3ccccc3F)cnc2O[C@H]1CN(C)C(=O)C1CCCCC1 | 0.569 fold change (inactive)
34 | CNC[C@@H]1Oc2cc(C#CC3CCCCC3)ccc2S(=O)(=O)N([C@@H](C)CO)C[C@@H]1C | 1.07 fold change (inactive)
35 | O=C(Nc1ccc(-c2nc3ccccc3o2)cc1)c1cc(-n2cnnc2)ccc1Cl | 0.17 fold change (inactive)
36 | CCn1cc(C(=O)O)c(=O)c2cc(F)c(N3CCNCC3)nc21 | 0.972 fold change (inactive)
37 | CCCCN(CCCC)C(=O)CN(C)S(=O)(=O)c1ccc2c(c1)n(C)c(=O)c(=O)n2C | 0.906 fold change (inactive)
38 | CN1C(=O)c2cc(NC(=O)c3cccc(F)c3)ccc2OC[C@@H]2O[C@H](CC(=O)O)CC[C@@H]21 | 0.92 fold change (inactive)
39 | C[C@@H]1CN([C@@H](C)CO)S(=O)(=O)c2ccc(C#Cc3ccncc3)cc2O[C@H]1CN(C)C(=O)C1CCOCC1 | 0.639 fold change (inactive)
40 | COc1ccc(-c2cnc3c(c2)C(=O)N([C@@H](C)CO)C[C@H](C)[C@H](CN(C)S(=O)(=O)c2ccc(OC)cc2)O3)cc1 | 1.26 fold change (inactive)
41 | CCN(CC)C(=O)c1cccc(NC(=O)c2ccc(Cl)cc2Cl)c1 | 0.931 fold change (inactive)

Row | SMILES | miR-122 fold change
42 | Cc1cccc(NC(=O)Nc2ccc3c(c2)C(=O)N(C)[C@@H]2CC[C@@H](CC(=O)NCc4ccccc4Cl)O[C@H]2CO3)c1 | 1.25 fold change (inactive)
43 | CN1C(=O)c2cc(NC(=O)c3cccc(F)c3)ccc2OC[C@@H]2O[C@@H](CC(=O)O)CC[C@@H]21 | 0.94 fold change (inactive)
44 | O=C(CN=C1NS(=O)(=O)c2ccccc21)Nc1ccccc1N1CCCCCC1 | 1.09 fold change (inactive)
45 | COCC(=O)N(C)C[C@H]1Oc2cc(-c3ccc(C#N)cc3)ccc2S(=O)(=O)N([C@H](C)CO)C[C@H]1C | 0.895 fold change (inactive)
46 | COc1cccc(C(=O)Nc2ccc3c(c2)C(=O)N(C)C[C@@H](OC)[C@@H](C)CN[C@@H](C)CO3)c1 | 1.15 fold change (inactive)
47 | O=C(c1ccc(CNc2c(NC3CCCCC3)c(=O)c2=O)cc1)N1CCc2ccccc21 | 0.521 fold change (inactive)
48 | CO[C@@H]1CN(C)C(=O)c2cc(NC(=O)c3cccc(Oc4ccccc4)c3)ccc2OC[C@H](C)NC[C@@H]1C | 0.113 fold change (inactive)
49 | CN(C)CCCOc1nn(Cc2ccccc2)c2ccccc12 | 1.5 fold change (inactive)
50 | O=S(=O)(NCCc1ccncc1)c1ccccc1 | 1.01 fold change (inactive)
51 | Cc1cc(C(C)(C)C)cc(S(=O)(=O)NCCc2ccncc2)c1C | 1.04 fold change (inactive)
52 | C[C@H](CO)N1C[C@H](C)[C@@H](CN(C)C(=O)C2CCOCC2)Oc2cc(C#Cc3ccncc3)ccc2S1(=O)=O | 0.407 fold change (inactive)
53 | COCC(=O)N(C)C[C@H]1Oc2cc(-c3ccc(C#N)cc3)ccc2S(=O)(=O)N([C@@H](C)CO)C[C@H]1C | 1.17 fold change (inactive)
54 | Nc1ccc(Oc2ccc(Cl)cc2)cc1 | 0.496 fold change (inactive)
55 | C[C@H]1CN([C@@H](C)CO)C(=O)c2cc(-c3ccc(C#N)cc3)cnc2O[C@H]1CN(C)Cc1cncnc1 | 0.987 fold change (inactive)
56 | C[C@H]1CN([C@@H](C)CO)S(=O)(=O)c2ccc(C#Cc3ccncc3)cc2O[C@@H]1CN(C)C(=O)C1CCOCC1 | 0.399 fold change (inactive)
57 | C[C@@H]1CN([C@@H](C)CO)S(=O)(=O)c2ccc(C#Cc3ccncc3)cc2O[C@@H]1CN(C)C(=O)C1CCOCC1 | 0.563 fold change (inactive)
58 | C[C@H]1CN([C@@H](C)CO)C(=O)c2cc(C#Cc3ccccc3F)cnc2O[C@@H]1CN(C)C(=O)C1CCCCC1 | 0.164 fold change (inactive)
59 | O=C(CNCCC1=CCCCC1)Nc1ccccc1N1CCCCCC1 | 0.489 fold change (inactive)

test system: Huh7 miR-122 levels, qRT-PCR, 48 h; test: as above; conditions: not given

Row | SMILES | AC40 [µM]
60 | CCCC#Cc1ccc2c(c1)O[C@H](CN(C)C(=O)COC)[C@H](C)CN([C@@H](C)CO)S2(=O)=O | 23.9
61 | COCC(=O)N(C)C[C@H]1Oc2cc(-c3ccccc3F)ccc2S(=O)(=O)N([C@H](C)CO)C[C@H]1C | 18.9
62 | Cc1cccc(NC(=O)Nc2ccc3c(c2)C(=O)N(C)[C@@H]2CC[C@H](CC(=O)NCc4ccccc4Cl)O[C@H]2CO3)c1 | 8.38
63 | COCC(=O)N(C)C[C@H]1Oc2cc(C#Cc3cccnc3)ccc2S(=O)(=O)N([C@H](C)CO)C[C@H]1C | 16.9
64 | CCCC#Cc1ccc2c(c1)O[C@H](CN(C)C(=O)c1ccncc1)[C@H](C)CN([C@@H](C)CO)S2(=O)=O | 3.54
